The text below walks through data of publication doi:10.1101/2024.02.23.581746 (2024).

Assay [1] concerns Cy5-labeled Bsu PreQ1 aptamer (RNA, riboswitch) GCGGGAGAGGUUCUAGCUACACCCUCUAUAAAAAACUAAGGACGAGCUGUAUCCUUGGAUACGGCC
The assay can be described thus: Cy5 fluorescence intensity assay (text says ligand fluorescence). To be noted: 100 mM KCl, 1 mM MgCl2; 50 mM Tris pH 7.5, room temperature, 5% DMSO, 50 nM RNA.

Assay [2] has as its system Tte-PreQ1 ab13_14_15 (RNA, riboswitch, abasic at 13, 14 and 15) CUGGGUCGCAGUNNNCCCAGUUAACAAAACAAG
The assay can be described thus: X-ray crystallography, 2.25 Å. The following applies: potassium sodium tartrate 100-300 mM; sodium citrate pH 5.6, ammonium sulfate 2.0-2.6 M, 20 °C.

Assay [3] relates to Cy5-labeled Bsu PreQ1 aptamer (RNA, riboswitch) GCGGGAGAGGUUCUAGCUACACCCUCUAUAAAAAACUAAGGACGAGCUGUAUCCUUGGAUACGGCC
Nature of the assay: MST. The following applies: 100 mM KCl, 1 mM MgCl2, 50 mM Tris pH 7.5, room temperature, DMSO.

Assay [4] has as its system Bsu PreQ1 RNA (MAGNA) (RNA, riboswitch) UCGGCGAUCUACGCAGCGACAUAAUAAGAGGUUCUAGCUACACCCUCUAUAAAAAACUAAUAACAACCACUUCCUAAUCUGUCAUCUUCUG
Nature of the assay: magnetic force spectroscopy (MAGNA). The following applies: 100 mM KCl, 1 mM MgCl2; 50 mM HEPES pH 7.4, 1% DMSO, 22 °C; 500 nM called saturating.

Assay [5] relates to B. subtilis PreQ1 (SHAPE-MaP) (RNA, riboswitch) GGGCCUUCGGGCCAAGCGGGAGAGGUUCUAGCUACACCCUCUAUAAAAAACUAAGGACGAGCUGUAUCCUUGGAUACGGCCUUUUUCGAUCCGGUUCGCCGGAUCCAAAUCGGGCUUCGGUCCGGUUC
The assay can be described thus: SHAPE-MaP (2A3). The following applies: 100 mM KCl, 1 mM MgCl2.

Assay [6] relates to T. tengcongensis PreQ1 (SHAPE-MaP) (RNA, riboswitch) GGGCCUUCGGGCCAACUCACCUGGGUCGCAGUAACCCCAGUUAACAAAACAAGGGAGGUAAUUUUUCGAUCCGGUUCGCCGGAUCCAAAUCGGGCUUCGGUCCGGUUC
Nature of the assay: SHAPE-MaP (2A3). The following applies: 100 mM KCl, 1 mM MgCl2; 50 mM Tris pH 7.5, 10 μM compound.

Assay [7] deals with S. pneumoniae PreQ1 (SHAPE-MaP) (RNA, riboswitch) GGGCCUUCGGGCCAACUUGGUGCUUAGCUUCUUUCACCAAGCAUAUUACACGCGGAUAACCGCCAAAGGAGAAUCGAUCCGGUUCGCCGGAUCCAAAUCGGGCUUCGGUCCGGUUC
The assay can be described thus: SHAPE-MaP (2A3). To be noted: 100 mM KCl, 1 mM MgCl2.

The test system of assay [8] is L. rhamnosus PreQ1 (SHAPE-MaP) (RNA, riboswitch) GGGCCUUCGGGCCAAGGAACCGCCCCGCGCGCUUCCACGAUACUUAUUUCCUUUGAUCGUCGUUAUUACUGGCAAAGCCACAAAGGAGUCGAUCCGGUUCGCCGGAUCCAAAUCGGGCUUCGGUCCGGUUC
The assay can be described thus: SHAPE-MaP (2A3). To be noted: 100 mM KCl, 1 mM MgCl2.

The test system of assay [9] is F. prausnitzii PreQ1 (SHAPE-MaP) (RNA, riboswitch) GGGCCUUCGGGCCAAGGAACGCUGAAAGAGCAACUUAGGAUUUUAGGCUCCCCGGCGUGUCUCGAACCAUGCCGGGCCAAACCCAUAGGGCUGGCGGUCCCUGUGCGGUCAAAAUUCAUCCGCCGGAGUAUUGUUAUCGAUCCGGUUCGCCGGAUCCAAAUCGGGCUUCGGUCCGGUUC
Nature of the assay: SHAPE-MaP (2A3). The following applies: 100 mM KCl, 1 mM MgCl2.

Assay [10] concerns Cy5-labeled Bsu PreQ1 aptamer (RNA, riboswitch) GCGGGAGAGGUUCUAGCUACACCCUCUAUAAAAAACUAAGGACGAGCUGUAUCCUUGGAUACGGCC
The assay can be described thus: MST (Figure S1 legend); text says ligand fluorescence. To be noted: 100 mM KCl, 1 mM MgCl2; 50 mM Tris pH 7.5, room temperature, DMSO.

Assay [11] deals with Tte-PreQ1 ab13_14_15 (RNA, riboswitch, abasic at 13, 14 and 15) CUGGGUCGCAGUNNNCCCAGUUAACAAAACAAG
The assay can be described thus: X-ray crystallography, 2.15 Å. The following applies: potassium sodium tartrate 100-300 mM; sodium citrate pH 5.6, ammonium sulfate 2.0-2.6 M, 20 °C.

In assay [12] the test system is Bsu PreQ1 RNA (MAGNA) (RNA, riboswitch) UCGGCGAUCUACGCAGCGACAUAAUAAGAGGUUCUAGCUACACCCUCUAUAAAAAACUAAUAACAACCACUUCCUAAUCUGUCAUCUUCUG
The assay can be described thus: magnetic force spectroscopy (MAGNA), median unfolding force. The following applies: 100 mM KCl, 1 mM MgCl2; 50 mM HEPES pH 7.4, 1% DMSO, 22 °C; from refolding force 456±258 μM.

Setting [13] is: 50 mM Tris pH 7.5, 10 μM compound.
The mark [14] stands for this setting: 50 mM Tris pH 7.5, 150 μM compound.

Molecules are shown by their SMILES.

On to `Cc1nccc2c1[nH]c1cc(OCCN(C)C)ccc12`, for which the KD (commonly the constant that tells how readily two partners part at equilibrium) in [1] was 104.4 ± 20 µM. Moreover, the binding result in assay [2] is “yes”.

`CNc1cc2c(=O)c3cc(O)ccc3oc2cn1`: the binding result in [3] (tested up to 500 μM) is recorded as “no”.

Take `NCc1c[nH]c2nc(N)[nH]c(=O)c12`: the binding result in [4], in [5] (setting [13]), in assay [6], in assay [7] (setting [13]), in assay [8] (setting [13]) and in assay [9] (setting [13]) was “yes” each time.

`NC(=O)COc1ccc2oc3ccccc3c(=O)c2c1`: the KD in [10] is reported as greater than 500 µM.

On to `CN(C)CCOc1ccc2oc3ccccc3c(=O)c2c1`, for which the binding result in assay [11], in assay [5] (setting [14]), in [7] (setting [14]), in assay [8] (setting [14]) and in [9] (setting [14]) was “yes” each time. Also, the EC50 (in general, the midpoint of the concentration-response curve) in assay [12] was 394 ± 157 µM.

With `CN(C)CCOc1ccc2sc3ccccc3c(=O)c2c1`, the KD in [3] stood at 58 ± 30 µM.

In [3], `COc1ccc2c(c1)Oc1ccc(N)cc1C(=O)N2` registered a dissociation constant KD of 18.3 ± 7.0 µM.

For `COc1ccc2c(c1)NC(=O)c1cc(N)ccc1O2`, in assay [3], the KD worked out at 1.9 ± 0.2 µM.
